For 8 compounds, IC50 results are on record in ChEMBL document CHEMBL5729561, “Compounds and uses thereof” (2023).

Each structure is given as a SMILES string. Bounds are passed on as bounds.

The nature of this experiment: On day 0 cells were seeded in 30 μL media into each well of 384-well cell culture plates. The seeding density was 8000 cells/well. On day 1, cells were treated with 30 nL DMSO or 30 nL of 3-fold serially DMSO-diluted compounds (10 points in duplicates with 1 μM as final top dose). Subsequently plates were incubated for 6 hours in a standard tissue culture incubator and equilibrated at room temperature for 15 minutes. Nanoluciferase activity was measured by adding 15 μL of freshly prepared Nano-Glo Luciferase Assay Reagent (Promega N1130), shaking the plates for 10 minutes and reading the bioluminescence using an EnVision reader. The experiment is classed as cell-based.
In turn, `COc1cc(-c2cn(C)c(=O)c3cnccc23)cc(OC)c1CN(C)C1CC2CC1CN2C(=O)CCOCCOc1ccc2c(c1)C(=O)N(C1CCC(=O)NC1=O)C2=O` (stereo not drawn) returned a half-inhibitory concentration (IC50) of less than 10 nM.
The result for `COc1cc(-c2cn(C)c(=O)c3cnccc23)cc(OC)c1CN(C)CC1CC12CCN(C(=O)CCOCCOc1ccc3c(c1)C(=O)N(C1CCC(=O)NC1=O)C3=O)CC2` (stereo not drawn) reads “in the range around 55 nM”.
Take `COc1cc(-c2cn(C)c(=O)c3cnccc23)cc(OC)c1CN(C)CC1CC2(CCN(C(=O)CCOCCOc3ccc4c(c3)C(=O)N(C3CCC(=O)NC3=O)C4=O)CC2)C1` (stereo not drawn): the IC50 entry is “in the range around 55 nM”.
For the compound `COc1cc(-c2cn(C)c(=O)c3cnccc23)cc(OC)c1CN(C)C1CC2CN(C(=O)CCOCCOc3ccc4c(c3)C(=O)N(C3CCC(=O)NC3=O)C4=O)CC2C1` (stereo not drawn), the IC50 result is “in the range around 55 nM”.
For `COc1cc(-c2cn(C)c(=O)c3cnccc23)cc(OC)c1CN(C)CC1CC2(CCN(C(=O)CCOCCOc3ccc4c(c3)C(=O)N(C3CCC(=O)NC3=O)C4=O)CC2)CO1` (stereo not drawn), the IC50 was less than 10 nM.
The result for `COc1cc(-c2cn(C)c(=O)c3cnccc23)cc(OC)c1CN(C)C1CCC2CN(C(=O)CCOCCOc3ccc4c(c3)C(=O)N(C3CCC(=O)NC3=O)C4=O)CC21` (stereo not drawn) reads less than 10 nM.
Compound `COc1cc(-c2cn(C)c(=O)c3cnccc23)cc(OC)c1CN(C)C1CCC12CCN(C(=O)CCOCCOc1ccc3c(c1)C(=O)N(C1CCC(=O)NC1=O)C3=O)CC2` (stereo not drawn) yielded a half-maximal inhibitory concentration (IC50) of less than 10 nM.
`COc1cc(-c2cn(C)c(=O)c3cnccc23)cc(OC)c1CN(C)CC1CC2(C1)CN(C(=O)CCOCCOc1ccc3c(c1)C(=O)N(C1CCC(=O)NC1=O)C3=O)C2` (stereo not drawn): the concentration for half-maximal inhibition (IC50) entry is “in the range around 550 nM”.
